Assays:
[1] = system: collagen plus epinephrine induced pulmonary thromboembolism; assay: Collagen-epinephrine induced pulmonary thromboembolism in mice; assay type: in vivo
Protocol: To assess the antithrombotic efficacy of compounds, mice were grouped into vehicle, aspirin and compound treated groups, and each group included ten animals. Pulmonary thromboembolism was induced by injecting a mixture of collagen (150 μg/ml) and adrenaline (50 μg/ml) into the tail vein to achieve final doses of collagen (1.5 mg/kg) and adrenaline (0.5 mg/kg) to induce hind limb paralysis or death.^11, 12 Number of test animals killed or paralyzed were evaluated (death/paralysis were employed as endpoint to evaluate antithrombotic agents). The percent protection was calculated by taking the ratio of number of test animals killed or paralyzed to that of total tested animals. Results have been reported as percentage protection, which represents protection against collagen and epinephrine induced thromboembolism and expressed as;
Percent Protection=[1−(Ptest/Pcontrol)]×100
Where, Ptest is the number of animals paralyzed/dead in test compound-treated group, and Pcontrol is the total number of animals paralyzed/dead in vehicle treated group. The percent protection refers to the number of animals in compound treated group that were prevented from paralysis/death.

human platelets [2] = assay: TRAP (thrombin mimetic SFLLRN) induced platelet aggregation; assay type: cell-based; conditions: up to 300 μM
human platelets [3] = assay: Ristocetin induced platelet aggregation; assay type: cell-based; conditions: up to 300 μM
human plasma = assay: Coagulability of blood by TT, PT and aPTT in human plasma
human platelets [4] = assay: ADP induced platelet aggregation; assay type: cell-based; conditions: up to 300 μM
human platelets [5] = assay: Collagen related peptide (CRP-XL) induced platelet aggregation; assay type: cell-based; conditions: up to 300 μM
[6] = system: ferric chloride induced arterial thrombosis; assay: FeCl3 induced carotid artery thrombosis in mice; assay type: in vivo
Protocol: Male Swiss albino mice were anesthetized byurethane (1.25 g/kg, i.p.). The carotid artery was carefully dissected and a pulsed Doppler Probe (LDF 100C, BioPac, USA) was placed around it to record the blood flow velocity and patency of the blood vessels. The carotid artery thrombosis was induced by FeCl3 as follows: a square (1×0.5 mm) of Whatman Chromatography paper was immersed in 10% FeCl3 solution for 5 min and placed on the carotid artery as described earlier. (Kurz K D, et al., Thromb Res 1990; 60(4):269-80; Surin W R et al J Pharmacol Toxicol Methods. 2010; 61(3):287-91) Thrombosis was monitored as the reduction in carotid artery blood flow. The time at which the blood-flow velocity was decreased to zero was recorded as the time to occlusion (TTO) of the carotid artery.

[7] = Tail bleeding time in mice
human platelets [8] = assay: Arachidonic acid induced platelet aggregation (COX pathway); assay type: cell-based
human platelets [9] = assay: U46619 (thromboxane receptor agonist) induced platelet aggregation; assay type: cell-based

O=C([C@@H]1CCC(=O)N1Cc1ccccc1Br)N1CC2CC(CN(Cc3ccccc3)C2)C1 [Compound 1d, 5-(7-Benzyl-3,7-diaza-bicyclo[3.3.1]nonane-3-carbonyl)-1-(2-bromo-benzyl)-pyrrolidin-2-one]
inhibition in vivo at 30 µM, 30 µmol/kg ([1]; Mus musculus, po, 1 h, read-out: Protection (%)): 40%
protection in collagen-epinephrine induced pulmonary thromboembolism ([1]; mice, after 4 hours (p.o.), 30 μM/kg): ≤ 60%
effect against TRAP induced platelet aggregation (human platelets [2]): did not exhibit any significant effect
effect against Ristocetin induced platelet aggregation (human platelets [3]): did not exhibit any significant effect
coagulability of blood as assessed by TT, PT and aPTT (human plasma): did not alter the coagulability of blood
effect against ADP induced platelet aggregation (human platelets [4]): did not exhibit any significant effect
effect against CRP-XL induced platelet aggregation (human platelets [5]): did not exhibit any significant effect
prolongation of time to occlusion vs control ([6]; 4 hr after oral administration): 2.2 fold
time to occlusion (TTO) of carotid artery ([6]; 1d 4 hr after oral administration, control 9.5±0.4 min): 19.2 ± 0.9 min
effect on bleeding tendency ([7]; 1 hr after oral dosing, compared against aspirin and clopidogrel): mild effect
bleeding time ([7]; after 4 hrs (oral), method doses aspirin 170 μM/kg, Clopidogrel 70 μM/kg): 8.4 min
inhibition of arachidonic acid induced platelet aggregation (human platelets [8]; 30 μM): did not exhibit any inhibition
attenuation of arachidonic acid induced platelet aggregation (human platelets [8]; 300 μM and 500 μM): ≤ 50%
inhibition at 30 µM (human platelets [9]): 75.5 ± 6%

From patent US20160214983A1, “3,7-DIAZABICYCLO[3.3.1]NONANE CARBOXAMIDES AS ANTITHROMBOTIC AGENTS” (COUNCIL OF SCIENTIFIC & INDUSTRIAL RESEARCH, priority 2013, published 2016)
